Test results: paper PMC4152863 (Regulatory peptides, 2013)
Where “and” joins values, the source holds several entries; their conditions need not be identical. Equal values may be shown once. Entries after “also recorded” stand apart in the source; their conditions may differ. Read-outs that look alike come from different tables or passages of the source.

Legend:
[1] = target: T1, novel, non-AT1, non-AT2 angiotensin binding site (neurolysin) (Rattus norvegicus, UniProt P42676); assay: Inhibition or enhancement of PCMB-unmasked 125I-SI Ang II binding in membranes
[2] = target: T1, novel, non-AT1, non-AT2 angiotensin binding site (neurolysin); details: cited from earlier work
[3] = target: T1, novel, non-AT1, non-AT2 angiotensin binding site (neurolysin); assay: Unmasking of specific 125I-SI Ang II binding in membranes
[4] = system: thimet oligopeptidase; details: cited from earlier work
[5] = target: liver AT1 receptors (Rattus norvegicus, UniProt P25095); type: binding; details: for Kd of 125I-SI Ang II binding: liver
[6] = system: Sprague-Dawley rats; assay: Drinking test after icv Ang II with or without HgCl2; type: in vivo, rat; details: ICV 200 pmoles HgCl2 with 100 pmoles Ang II; water intake over 30 min
[7] = system: neurolysin; details: cited from earlier work
[8] = brain and testis, ~100 μM primary screening or range of concentrations
[9] = 100 μM test compound, 100 μM PCMB, brain and testis

liver AT1 receptors, sequence (P25095 whole entry): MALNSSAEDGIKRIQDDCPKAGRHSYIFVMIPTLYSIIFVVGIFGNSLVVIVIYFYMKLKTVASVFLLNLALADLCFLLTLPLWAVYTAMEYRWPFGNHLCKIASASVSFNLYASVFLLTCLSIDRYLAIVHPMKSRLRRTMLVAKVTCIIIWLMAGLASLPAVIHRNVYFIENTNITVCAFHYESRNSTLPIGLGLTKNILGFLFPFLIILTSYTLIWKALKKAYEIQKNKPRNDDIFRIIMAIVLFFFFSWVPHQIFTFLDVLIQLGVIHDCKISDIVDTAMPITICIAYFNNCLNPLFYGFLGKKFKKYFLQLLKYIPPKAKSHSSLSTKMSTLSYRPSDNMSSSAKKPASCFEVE
T1 sequence (P42676 38-704): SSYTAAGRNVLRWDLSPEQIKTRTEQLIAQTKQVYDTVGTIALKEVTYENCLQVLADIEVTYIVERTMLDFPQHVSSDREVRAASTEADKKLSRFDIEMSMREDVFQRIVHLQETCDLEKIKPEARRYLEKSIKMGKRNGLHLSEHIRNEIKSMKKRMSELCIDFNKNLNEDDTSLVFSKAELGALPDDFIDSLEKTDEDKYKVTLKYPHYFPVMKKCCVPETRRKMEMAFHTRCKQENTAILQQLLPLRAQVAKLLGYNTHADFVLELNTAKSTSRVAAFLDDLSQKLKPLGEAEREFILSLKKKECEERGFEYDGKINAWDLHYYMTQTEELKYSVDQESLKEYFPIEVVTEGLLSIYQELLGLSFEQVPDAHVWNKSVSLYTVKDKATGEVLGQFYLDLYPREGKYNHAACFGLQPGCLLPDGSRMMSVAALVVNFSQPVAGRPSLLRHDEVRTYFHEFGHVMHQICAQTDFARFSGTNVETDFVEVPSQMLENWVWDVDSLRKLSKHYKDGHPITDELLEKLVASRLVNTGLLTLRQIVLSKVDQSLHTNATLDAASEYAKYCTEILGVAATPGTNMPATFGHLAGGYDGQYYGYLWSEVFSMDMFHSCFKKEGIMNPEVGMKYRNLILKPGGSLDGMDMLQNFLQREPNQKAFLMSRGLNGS

In the case of `O=[N+]([O-])[O-].[Na+]` [Sodium nitrate], the “inhibition of PCMB-unmasked 125I-SI Ang II binding, primary screening (in words)” value (from here on “inhibition … primary screening (in words)”) [1] is reported as “did not show any inhibition”.

With `OO` [hydrogen peroxide] the “inhibition … primary screening (in words)” value [1] was “did not inhibit”.

In the case of `OCCS` [2-mercaptoethanol, 2-mercaptoethanol], the “reversal of PCMB unmasking of Ang II binding (in words)” value [2] is given as “reversed”.

In the case of `[Cl][Mn][Cl]` [manganese chloride], the “unmasking of specific 125I-SI Ang II binding in the absence of PCMB (in words)” value (“unmasking … of PCMB (in words)” below) [3] is reported as “greater unmasking in testis compared to brain”.

With `O=C(O)c1ccc(O)cc1` [4-hydroxybenzoic acid] the “unmasking … of PCMB (in words)” value [3, 8] was “did not promote”.

For `O=C(O)c1cc[c]([Hg][Cl])cc1` [PCMB, parachloromercuribenzoic acid], the “concentration for optimal (peak) unmasking of 125I-SI Ang II binding” value (“concentration for optimal” for short) ([3]; brain and testis) is listed as 100 to 300 µM and the “unmasking of Ang II binding to thimet oligopeptidase (in words)” value [4] is listed as “does not unmask”.

In the case of `NCCCNCCSP(=O)(O)O` [amifostine], the “inhibition of PCMB unmasking of 125I-SI Ang II binding, primary screening” value (“inhibition of PCMB unmasking … primary screening” below) [1, 9] is reported as “more than 50%” and the “inhibition in secondary screening” value ([1]; at or above 100 μM, 100 μM PCMB, data not shown) is reported as less than 50%.

In the case of `[Cl][Hg][Cl]` [HgCl2, mercuric chloride], the “Bmax of 125I-SI Ang II binding” value [5] is reported as 20.8±1.8 and 20.6±2.4 and 20.4±4.4, the “effect on 125I-SI Ang II binding to AT1 receptors (in words)” value [5] is reported as “lack of effect; also recorded: did not impair” and the “Kd of 125I-SI Ang II binding” value ([5]; 10 μM HgCl2) is reported as 2.93±0.40. For the same compound, the “Kd of 125I-SI Ang II binding” value ([5]; 30 μM HgCl2) was 2.41±0.46, the “Kd of 125I-SI Ang II binding” value ([5]; 100 μM HgCl2) was 3.15±1.1 and the “effect on dipsogenic response to Ang II (in words)” value [6] was “lack of effect; also recorded: did not affect”. For the same compound, the “inhibition … primary screening (in words)” value [1] was “significantly reduced; also recorded: substantially inhibited”, the “IC50's for inhibition of 125I-SI Ang II binding” value (from here on “IC50's for inhibition”) ([1]; brain and testis, 100 μM PCMB) was 1 to 20 µM and the “IC50 for inhibition of 125I-SI Ang II binding” value (from here on “IC50 for inhibition”) ([1]; brain, 100 μM PCMB) was 14.3 µM. The “IC50 for inhibition” value ([1]; testis, 100 μM PCMB) was 11.0 µM.

For `NCCCNCCS` [WR-1065], the “inhibition … primary screening (in words)” value [1, 9] was “did not inhibit”.

With `Cc1cc(-c2ccc(/N=N/c3ccc4c(S(=O)(=O)O)cc(S(=O)(=O)O)c(N)c4c3O)c(C)c2)ccc1/N=N/c1ccc2c(S(=O)(=O)O)cc(S(=O)(=O)O)c(N)c2c1O` [Evans blue] the “unmasking … of PCMB (in words)” value [3, 8] was “unable to unmask”, the “effect on 125I-SI Ang II binding in the presence of PCMB (in words)” value ([1]; 100 μM, brain and testis) was “enhanced” and the “Rmax for enhancement of specific 125I-SI Ang II binding in the presence of PCMB” value ([1]; brain, 100 μM PCMB) was 163±56%. The “Rmax for enhancement of specific 125I-SI Ang II binding in the presence of PCMB” value ([1]; testis, 100 μM PCMB) was 442±340%.

In the case of `O=C(O)c1cc[c]([Hg][OH])cc1` [4-hydroxymercuribenzoate, 4-hydroxymercuribenzoic acid], the “unmasking … of PCMB (in words)” value [3] is reported as “unmasked non-AT1, non-AT2 binding independent of PCMB; also recorded: partial unmasking; also recorded: capable of fully unmasking”, the “concentration for optimal” value ([3]; brain and testis) is reported as ~ 300 μM and the “concentration for optimal” value ([3]; brain and testis, listed as 4-OH Hg bza) is reported as 300 µM. The “inhibition … primary screening (in words)” value [1] was “moderately inhibited”.

For `O[C@@H](CS)[C@@H](O)CS` [DTT], the “reversal of PCMB unmasking of Ang II binding (in words)” value [2] is listed as “reversed” and the “inhibition of the enzymatic activity of neurolysin (in words)” value [7] is listed as “can be inhibited”.

For `O=[N+]([O-])[O-].[Ag+]` [AgNO3, silver nitrate], the “inhibition … primary screening (in words)” value [1] was “significantly reduced; also recorded: substantially inhibited”, the “IC50's for inhibition” value ([1]; brain and testis, 100 μM PCMB) was 1 to 20 µM and the “IC50 for inhibition” value ([1]; brain, 100 μM PCMB) was 1.77 µM. For the same compound, the “IC50 for inhibition” value ([1]; testis, 100 μM PCMB) was 21.3 µM.

For `COC([CH2][Hg+])CNC(=O)c1ccccc1OCC(=O)O.[OH-]` (stereo not shown) [mersalyl acid], the “unmasking of 125I-SI Ang II binding at concentrations up to 1 mM (in words)” value ([3]; brain and testis, absence of PCMB, data not shown) was “no ability to unmask; also recorded: did not unmask”, the “inhibition … primary screening (in words)” value [1] was “full inhibition” and the “inhibition of PCMB unmasking … primary screening” value [1, 9] was “more than 50%”. For the same compound, the “IC50's for inhibition” value ([1]; brain and testis, 100 μM PCMB) was 1 to 20 µM, the “IC50 for inhibition” value ([1]; brain, 100 μM PCMB) was 1.10 µM and the “IC50 for inhibition” value ([1]; testis, 100 μM PCMB) was 2.27 µM.

In the case of `NCCS` [cysteamine], the “inhibition of PCMB unmasking … primary screening” value [1, 9] is reported as “more than 50%”, the “IC50 for inhibition” value ([1]; brain, 100 μM PCMB) is reported as 28.1 µM and the “IC50 for inhibition” value ([1]; testis, 100 μM PCMB) is reported as 138 µM.
